Assay results reported in EP2179734B1, “Benzoxazine and dihydroquinazoline derivatives for use in the treatment of alcohol withdrawal syndrome” (Biocodex, priority 2008, dated 2010).

Experiments:
souris sevrée [1] = test: Handling-induced convulsion score during alcohol withdrawal (Watson and Little 1995); assay type: in vivo; conditions: NMRI mice, 4 to 6 h after removal
Experimental: (§1) Des souris de souche NMRI (élevage Janvier), âgées de 5 à 6 semaines et de poids compris entre 25 et 30 g sont utilisées après 10 jours d'habituation aux conditions du laboratoire. Les conditions d'hébergement sont les suivantes : t° ambiante = 22 ± 2 °C; hygrométrie relative = 50 ± 20 %; cycle lumière/obscurité : 12 h/12 h (lumière de 7h00 à 19h00); nourriture A04 (SAFE, France) et boisson (eau du robinet) à volonté; dix animaux groupés par cage de polypropylène (435x435x194 mm).
(§2) Dans un premier temps, les animaux ont été familiarisés avec la nourriture liquide apportée sous un volume quotidien de 40 ml durant 7 à 10 jours. Celle-ci est constituée de lait chocolaté (Candia, France) auquel sont ajoutés 5 g/l d'un mélange de sels minéraux (ICN, France) et 3 g/l d'un mélange de vitamines (ICN, France).
(§3) Dans un deuxième temps, les animaux alcoolisés ont reçu la nourriture liquide contenant 3 % (p/v) d'éthanol (95°) durant 8 jours puis 4 % (p/v) d'éthanol (95°) durant 7 jours, tandis que les animaux témoins (non alcoolisés) ont eu accès à une nourriture avec l'équivalent calorique de dextrose (D-glucose, VWR, France).
(§4) Aucune nourriture solide, ni eau de boisson n'ont été proposées aux animaux durant cette période d'alcoolisation. Au terme des 15 jours d'alcoolisation (J15), le biberon avec l'alcool a été remplacé par un biberon de nourriture identique à celui des animaux témoins.
Cette mesure est effectuée selon le protocole décrit par Watson and Little (1995) J Pharmacol Exp Ther 272: 876-884. Brièvement, l'animal est soulevé par la queue et maintenu durant 30 secondes à 30 cm d'une lampe pourvue d'une ampoule de 60W puis subit une légère rotation (360°). Le comportement de chaque animal est évalué selon une échelle de cotation de 0 à 5, selon des critères figurant dans le Tableau 1 : Tableau 1 : Différents niveaux de cotation du comportement chez la souris selon Watson et Little (1995)
La mesure est réalisée avant l'expérience (conditions basales), 24 heures avant le retrait de l'éthanol puis le jour du retrait toutes les heures de 1 à 7 heures après le retrait du biberon de nourriture (7h00 - 8h00 le matin).
L'étifoxine (6.25 - 100 mg/kg) et le diazépam (1 et 4 mg/kg) sont administrés par voie intrapéritonéale (ip) 3h30 après le retrait du biberon. Une étude préliminaire a montré que les signes de sevrage étaient présents à ce temps (score ≥ 2). Les animaux contrôles reçoivent un volume équivalent de liquide véhicule.
Un score (de 0 à 5) est attribué pour chaque animal à chaque temps (de 1 à 7 h).
L'étifoxine (lots 219 et 350; Biocodex - France) est mis en suspension dans une solution saline (NaCl-0.9 %; p/v) de tween 80 à 1% (v/v) tandis que le diazépam (Valium®) est solubilisé dans une solution saline. Le volume d'administration par voie ip est de 0.1 ml/10 g. […]

souris sevrée [2] = test: Anxiety level during alcohol withdrawal: two-compartment (light/dark) box test (Crawley and Goodwin 1980, modified); assay type: in vivo; conditions: 8 h after ethanol removal, 5 min test, withdrawn NMRI mice
Experimental: as §1, §2, §3, §4
Le protocole décrit par Crawley and Goodwin (1980) Pharmacol Biochem Behav 1980; 13: 167-170 et légèrement modifié a été utilisé. Cette épreuve, reposant sur les tendances agoraphobiques et photophobiques des rongeurs, est classiquement utilisée pour mesurer leur niveau de peur ou d'anxiété.
Le dispositif est constitué d'une boîte en plexiglas à 2 compartiments (OSYS, Orga System; France) : l'un (18 x 27 x 30 cm) sombre et pourvu d'un couvercle, est éclairé à l'aide d'une lampe rouge (60W; 4 lux) tandis que le plus grand (27 x 27 x 30 cm), peint en blanc, est éclairé à l'aide d'une lampe de 60 W (400 lux). Une entrée (7.5 x 7.5 cm) située au centre de la cloison qui sépare les 2 compartiments, relie les 2 compartiments. Ceux-ci, équipés de cellules photoélectriques infra-rouges (4 dans le compartiment clair et 3 dans le compartiment sombre) reliées à un compteur digital, permettent la détection et la mesure des déplacements de l'animal. Celui-ci est déposé au centre du compartiment sombre face à l'ouverture. La latence d'entrée (en sec.) dans le compartiment clair, le nombre de déplacements dans le compartiment clair et le nombre de transition entre les 2 compartiments sombre et clair sont relevés au terme d'une épreuve de 5 min. La boîte est nettoyée avec de l'eau alcoolisée (10 %; v/v) pour éliminer toute trace odorante entre chaque passage. L'épreuve est réalisée 8 h après le retrait de la nourriture alcoolisée. Ce délai correspond au temps optimal pour la mesure du niveau d'anxiété chez l'animal soumis au sevrage alcoolique (Watson et Little (1994) Psychopharmacology (Berl) 114: 329-336).
L'étifoxine (6.25 - 50 mg/kg) ou le diazépam (1 mg/kg) est administré par voie ip 30 min avant l'épreuve. Les animaux contrôles reçoivent un volume équivalent de liquide véhicule.
L'étifoxine (lots 219 et 350; Biocodex - France) est mis en suspension dans une solution saline (NaCl-0.9 %; p/v) de tween 80 à 1% (v/v) tandis que le diazépam (Valium®) est solubilisé dans une solution saline. Le volume d'administration par voie ip est de 0.1 ml/10 g.
Les résultats sont exprimés par la valeur moyenne ± erreur standard à la moyenne (esm). Concernant la mesure de l'intensité des convulsions induites par la manipulation, l'analyse de variance (ANOVA) à 2 facteurs (temps x traitement) avec mesures répétées sur le facteur temps suivie de manière post-hoc par le test de Student Newman-Keuls, a été utilisée pour localiser les différences entre les groupes expérimentaux. […]

Structure (SMILES)	score de convulsions (souris sevrée [1]; mainly at 4 mg/kg ip 3h30 after ethanol removal)	latence d'entrée dans le compartiment clair (souris sevrée [2]; 1 mg/kg ip 30 min before test)	nombre de déplacements dans le compartiment clair (souris sevrée [2]; 1 mg/kg ip 30 min before test)	nombre de transitions entre les 2 compartiments (souris sevrée [2]; 1 mg/kg ip 30 min before test)	score de convulsions (souris sevrée [1]; 12.5 mg/kg ip 3h30 after ethanol removal, vs alcoholised controls, p<0.05)	score de convulsions (souris sevrée [1]; 25 mg/kg ip 3h30 after ethanol removal, vs alcoholised controls, p<0.05)	score de convulsions (souris sevrée [1]; 100 mg/kg ip 3h30 after ethanol removal, vs alcoholised controls, p<0.05)	latence d'entrée dans le compartiment clair (souris sevrée [2]; 50 mg/kg ip 30 min before test)	nombre de déplacements dans le compartiment clair (souris sevrée [2]; 50 mg/kg ip 30 min before test)	nombre de transitions entre les 2 compartiments (souris sevrée [2]; 50 mg/kg ip 30 min before test)
CN1C(=O)CN=C(c2ccccc2)c2cc(Cl)ccc21 [diazépam]	produit le même effet	atténue également de manière significative les effets du retrait de l'éthanol	atténue également de manière significative les effets du retrait de l'éthanol	atténue également de manière significative les effets du retrait de l'éthanol						
CCNC1=Nc2ccc(Cl)cc2C(C)(c2ccccc2)O1 (stereo not shown) [étifoxine, chlorhydratede 6-chloro-2-éthylamino-4-méthyl-4-phényl-4H-[3,1]benzoxazine]					réduit significativement le score de convulsions	réduit significativement le score de convulsions	réduit significativement le score de convulsions	s'oppose aux effets du sevrage à l'éthanol sur ces 3 paramètres avec un effet statistiquement significatif	s'oppose aux effets du sevrage à l'éthanol sur ces 3 paramètres avec un effet statistiquement significatif	s'oppose aux effets du sevrage à l'éthanol sur ces 3 paramètres avec un effet statistiquement significatif
